Test results reported in the supplement of paper PMC13380429.

Legend:
[1] = system: A549-ACE2 infected with SARS-CoV-2; test: cell count relative to DMSO; higher = less toxic; conditions: 24 h
HepG2 [2] = test: relative viability EC50 (midpoint between 100% and the lowest measured viability); higher = less toxic; conditions: 72 h
Vero E6 [3] = test: as above; conditions: 72 h
HepG2 [4] = test: drug sensitivity score (DSS) for viability; higher = more toxic; extreme values may be limits of the assay; conditions: 72 h
Caco-2 [5] = test: as above; conditions: 72 h
Vero E6 [6] = test: as above; conditions: 72 h
Calu-3 [7] = test: as above; conditions: 72 h
[8] = system: A549-ACE2 infected with SARS-CoV-2; test: SARS-CoV-2 infection rate relative to DMSO; higher = more infection; conditions: 24 h
A549-ACE2 = test: drug-induced phospholipidosis relative to tamoxifen; higher = more phospholipidosis
[9] = system: A549-ACE2 infected with SARS-CoV-2; test: morphology score (similarity to uninfected cells); higher = more like uninfected cells; conditions: 24 h
HepG2 [10] = test: cell viability relative to DMSO; higher = less toxic; conditions: 72 h
Caco-2 [11] = test: as above; conditions: 72 h
Vero E6 [12] = test: as above; conditions: 72 h
Calu-3 [13] = test: as above; conditions: 72 h
U2OS [14] = test: relative viability EC50 (midpoint between 100% and the lowest measured viability); higher = less toxic; conditions: 72 h
U2OS [15] = test: drug sensitivity score (DSS) for viability; higher = more toxic; extreme values may be limits of the assay; conditions: 72 h
U2OS [16] = test: cell viability relative to DMSO; higher = less toxic; conditions: 72 h

O=c1cc(N2CCOCC2)oc2c(-c3cccc4c3sc3ccccc34)cccc12 [NU-7441]
Conditions	SARS-CoV-2 infection rate, [8] [%]	cell count, [1] [%]	cell viability, Caco-2 [11] [%]	cell viability, Calu-3 [13] [%]	cell viability, HepG2 [10] [%]	cell viability, Vero E6 [12] [%]	morphology score, [9]
1 nM	–	–	109	101	108	104	–
10 nM	–	–	89.2	110	108	102	–
0.1 µM	101	96	–	–	–	–	-0.14
100 nM	–	–	100	98.7	116	102	–
0.3 µM	101	94	–	–	–	–	-0.23
1 µM	74	105	–	–	–	–	0.22
1000 nM	–	–	71.2	111	88.4	85.4	–
3 µM	38	98	–	–	–	–	0.53
10000 nM	–	–	56.9	61	32.7	14.4	–

Conditions	drug sensitivity score	relative viability EC50 [µM]
Caco-2 [5]	5.6	–
Calu-3 [7]	1.4	–
HepG2 [2]	–	1.87
HepG2 [4]	5.6	–
Vero E6 [3]	–	1.87
Vero E6 [6]	7.2	–

drug-induced phospholipidosis [%], A549-ACE2
Conditions	0.3 µM	0.833333 µM	3.33333 µM	6.66667 µM	10 µM	30 µM
24 h	-4.01	-8.02	17.6	23.6	28.1	26.9
48 h	-3.93	-5.23	26.4	–	–	–
72 h	-2.08	-7.5	–	–	–	–

C=C1C(=O)[C@]23[C@H](O)[C@H]1CC[C@H]2[C@@]12CO[C@]3(O)[C@@H](O)[C@@H]1C(C)(C)CC[C@@H]2O [Oridonin (Isodonol)]
Conditions	SARS-CoV-2 infection rate, [8] [%]	cell count, [1] [%]	cell viability, Caco-2 [11] [%]	cell viability, HepG2 [10] [%]	cell viability, U2OS [16] [%]	cell viability, Vero E6 [12] [%]	morphology score, [9]
1 nM	–	–	97.7	97.4	102	99.9	–
10 nM	–	–	107	103	95.1	98.7	–
0.1 µM	100	94	–	–	–	–	-0.14
100 nM	–	–	103	91.8	98.3	97.9	–
0.3 µM	99	101	–	–	–	–	-0.02
1 µM	104	99	–	–	–	–	-0.18
1000 nM	–	–	93.3	96.2	94.4	95.4	–
3 µM	101	98	–	–	–	–	-0.01
10000 nM	–	–	65.4	42.8	11.8	79.7	–

Conditions	drug sensitivity score	relative viability EC50 [µM]
Caco-2 [5]	2.7	–
HepG2 [2]	–	2.63
HepG2 [4]	3.7	–
U2OS [14]	–	2.66
U2OS [15]	5.7	–
Vero E6 [3]	–	> 10
Vero E6 [6]	1.2	–

drug-induced phospholipidosis [%], A549-ACE2
Conditions	0.3 µM	0.833333 µM	3.33333 µM	6.66667 µM	10 µM	30 µM
24 h	5.1	-1.43	0.65	11	16.8	43.1
48 h	5.34	-3.46	-0.285	6.67	13	–
72 h	4.41	-5.79	-4.81	-1.61	4.49	–
